{
  "source": "ChEMBL document CHEMBL4130350",
  "about": "“Discovery, mechanism and metabolism studies of 2,3-difluorophenyl-linker-containing PARP1 inhibitors with enhanced in vivo efficacy for cancer therapy” (Eur J Med Chem, 2017)",
  "key": {"CAPAN-1 [1]": {"test_system": "CAPAN-1", "test": "Cell cycle arrest in human Capan1 cells assessed as accumulation at G2/M phase at 0.1 uM after 72 hrs by propidium iodide-staining based flow cytometry (reference value: 15.26%)", "format": "functional"}, "CAPAN-1 [2]": {"test_system": "CAPAN-1", "test": "Cell cycle arrest in human Capan1 cells assessed as accumulation at G2/M phase at 1 uM after 72 hrs by propidium iodide-staining based flow cytometry (reference value: 15.26%)", "format": "functional"}, "[3]": {"target": "T1, Poly [ADP-ribose] polymerase 1 (Homo sapiens, UniProt P09874)", "T1 sequence (P09874 whole entry)": "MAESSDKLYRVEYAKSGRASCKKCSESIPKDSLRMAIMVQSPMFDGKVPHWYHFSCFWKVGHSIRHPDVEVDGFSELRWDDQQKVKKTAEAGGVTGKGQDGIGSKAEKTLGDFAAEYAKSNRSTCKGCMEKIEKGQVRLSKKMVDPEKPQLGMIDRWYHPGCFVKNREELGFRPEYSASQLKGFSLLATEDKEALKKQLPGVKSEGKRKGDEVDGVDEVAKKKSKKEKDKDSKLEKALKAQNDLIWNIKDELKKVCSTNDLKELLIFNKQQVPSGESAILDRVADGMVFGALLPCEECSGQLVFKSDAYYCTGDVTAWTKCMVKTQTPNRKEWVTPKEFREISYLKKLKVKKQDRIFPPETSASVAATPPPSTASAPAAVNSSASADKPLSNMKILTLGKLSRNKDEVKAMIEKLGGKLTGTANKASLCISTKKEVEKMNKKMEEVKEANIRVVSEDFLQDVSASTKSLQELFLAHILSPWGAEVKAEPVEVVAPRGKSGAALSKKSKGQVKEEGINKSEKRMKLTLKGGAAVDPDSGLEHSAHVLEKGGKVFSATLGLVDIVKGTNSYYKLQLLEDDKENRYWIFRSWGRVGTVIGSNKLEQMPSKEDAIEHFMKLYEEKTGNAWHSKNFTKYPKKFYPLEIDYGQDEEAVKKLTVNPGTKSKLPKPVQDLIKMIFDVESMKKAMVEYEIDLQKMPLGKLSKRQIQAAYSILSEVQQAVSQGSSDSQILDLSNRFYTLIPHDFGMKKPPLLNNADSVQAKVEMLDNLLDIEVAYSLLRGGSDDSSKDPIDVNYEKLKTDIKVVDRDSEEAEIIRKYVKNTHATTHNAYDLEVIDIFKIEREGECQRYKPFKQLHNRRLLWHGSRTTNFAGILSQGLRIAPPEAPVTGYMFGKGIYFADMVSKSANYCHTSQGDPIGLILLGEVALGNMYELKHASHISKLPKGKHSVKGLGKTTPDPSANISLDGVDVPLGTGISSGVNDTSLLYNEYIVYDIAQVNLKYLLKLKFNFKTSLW", "test": "Inhibition of PARP1 in BRCA1 deficient human MDA-MB-436 cells assessed as increase in DNA double stranded breaks by measuring gammaH2AX levels after 48 hrs by Western blot analysis", "format": "cell-based"}, "[4]": {"test": "Half life in Sprague-Dawley rat at 5 mg/kg, iv by LC-MS/MS analysis", "format": "ADME, organism-based", "details": "in vivo"}, "[5]": {"target": "T1, Poly [ADP-ribose] polymerase 1", "test": "Inhibition of PARP1 in BRCA2 deficient human Capan1 cells assessed as increase in DNA double stranded breaks by measuring gammaH2AX levels after 72 hrs by Western blot analysis"}, "CAPAN-1 [6]": {"test_system": "CAPAN-1", "test": "Effect on total ATM protein levels in human Capan1 cells at 0.1 to 1 uM after 48 hrs by Western blot analysis", "format": "ADME, cell-based", "details": "capan-1, 48 h"}, "MDA-MB-436 [7]": {"test_system": "MDA-MB-436", "test": "Antitumor activity against human MDA-MB-436 cells harboring BRCA1 mutant xenografted in nude BALB/cA mouse assessed as tumor growth inhibition at 50 mg/kg, po administered once daily for 21 consecutive days measured twice per week", "format": "functional", "details": "MDA-MB-436, po, read-out: TGI"}, "CAPAN-1 [8]": {"test_system": "CAPAN-1", "test": "Cell cycle arrest in human Capan1 cells assessed as accumulation at S phase at 0.1 uM after 72 hrs by propidium iodide-staining based flow cytometry (reference value: 21.42%)", "format": "functional"}, "MDA-MB-436 [9]": {"test_system": "MDA-MB-436", "test": "Antiproliferative activity against human MDA-MB-436 cells after 7 days by CCK8 or SRB assay", "format": "functional, cell-based", "details": "MDA-MB-436, 168 h"}, "CAPAN-1 [10]": {"test_system": "CAPAN-1", "test": "Effect on total chk1 protein levels in human Capan1 cells at 0.1 to 1 uM after 48 hrs by Western blot analysis", "format": "ADME, cell-based", "details": "capan-1, 48 h"}, "[11]": {"test": "Drug metabolism in mouse liver microsomes assessed as oxidative metabolite formation at 2 uM up to 60 mins in presence of NADPH by LC-MS/MS analysis", "format": "ADME, microsome", "details": "1 h"}, "[12]": {"test": "AUC in Sprague-Dawley rat at 5 mg/kg, iv by LC-MS/MS analysis", "format": "ADME, organism-based", "details": "in vivo"}, "Mus musculus [13]": {"test_system": "Mus musculus", "test": "Toxicity in nude BALB/cA mouse xenografted with human Capan1 cells harboring BRCA2 mutant assessed as weight loss at 40 mg/kg, po administered once daily for 21 consecutive days measured twice per week", "format": "organism-based", "details": "in vivo"}, "MDA-MB-436 [14]": {"test_system": "MDA-MB-436", "test": "Induction of apoptosis in human MDA-MB-436 cells assessed as caspase-3/7 activation at 0.1 to 1 uM after 72 hrs by Caspase-Glo 3/7 assay", "format": "functional, cell-based"}, "MDA-MB-436 [15]": {"test_system": "MDA-MB-436", "test": "Induction of apoptosis in human MDA-MB-436 cells assessed as late apoptotic cells at 0.1 uM after 96 hrs in presence of pancaspase inhibitor Z-VAD-FMK by Annexin V-FITC/propidium iodide double-staining based flow cytometery (reference value: 5.11%)", "format": "functional"}, "[16]": {"target": "T1, Poly [ADP-ribose] polymerase 1", "test": "Inhibition of PARP1 in human Capan1 cells assessed as increase in phosphorylated ATM protein levels at 0.1 to 1 uM after 48 hrs by Western blot analysis", "format": "cell-based"}, "[17]": {"test": "Half life in Sprague-Dawley rat at 10 mg/kg, po by LC-MS/MS analysis", "format": "ADME, organism-based", "details": "in vivo"}, "[18]": {"test": "Solubility of the compound in water after 24 hrs by HPLC analysis", "format": "physicochemical"}, "[19]": {"test": "Drug metabolism in mouse liver microsomes assessed as dehydrogenation at 2 uM up to 60 mins in presence of NADPH by LC-MS/MS analysis", "format": "ADME, microsome", "details": "1 h"}, "[20]": {"target": "T1, Poly [ADP-ribose] polymerase 1", "test": "Inhibition of PARP1 in BRCA1 deficient human MDA-MB-436 cells assessed as increase in DNA double stranded breaks by measuring gammaH2AX levels after 72 hrs by Western blot analysis", "format": "cell-based"}, "[21]": {"test": "Cmax in Sprague-Dawley rat at 5 mg/kg, iv by LC-MS/MS analysis", "format": "ADME, organism-based", "parameters": "dose 5 mg/kg, route intravenous", "details": "in vivo"}, "CAPAN-1 [22]": {"test_system": "CAPAN-1", "test": "Cell cycle arrest in human Capan1 cells after 72 hrs by propidium iodide-staining based flow cytometry", "format": "functional"}, "[23]": {"test": "Apparent permeability across basolateral to apical side in human Caco2 cells after 2 hrs by LC-MS/MS analysis", "format": "ADME, cell-based", "details": "Caco-2"}, "CAPAN-1 [24]": {"test_system": "CAPAN-1", "test": "Antiproliferative activity against human Capan1 cells after 7 days by CCK8 or SRB assay", "format": "functional, cell-based", "details": "CAPAN-1, 168 h"}, "[25]": {"test": "Retention time in mouse liver microsomes at 2 uM up to 60 mins in presence of NADPH by LC-MS/MS analysis", "format": "ADME, microsome", "details": "1 h"}, "[26]": {"test": "Stability in mouse plasma at 1 uM up to 60 mins by LC-MS/MS analysis", "format": "ADME, cell-free", "details": "read-out: Stability"}, "CAPAN-1 [27]": {"test_system": "CAPAN-1", "test": "Cell cycle arrest in human Capan1 cells assessed as accumulation at G0/G1 phase at 10 uM after 72 hrs by propidium iodide-staining based flow cytometry (reference value: 63.33%)", "format": "functional"}, "[28]": {"test": "Protein binding in mouse plasma at 0.5 to 50 uM after 4 hrs by LC-MS/MS analysis", "format": "ADME, cell-free", "details": "read-out: PPB (converted)"}, "[29]": {"target": "T1, Poly [ADP-ribose] polymerase 1", "test": "Inhibition of PARP1 in BRCA2 deficient human Capan1 cells assessed as increase in DNA double stranded breaks by measuring gammaH2AX levels after 48 hrs by Western blot analysis"}, "CAPAN-1 [30]": {"test_system": "CAPAN-1", "test": "Cell cycle arrest in human Capan1 cells assessed as accumulation at G0/G1 phase at 0.1 uM after 72 hrs by propidium iodide-staining based flow cytometry (reference value: 63.33%)", "format": "functional"}, "[31]": {"test": "Apparent permeability across apical to basolateral side in human Caco2 cells assessed as drug recovery at 4701.8 pmol after 2 hrs by LC-MS/MS analysis", "format": "ADME, cell-based", "details": "Caco-2, read-out: Drug recovery"}, "CAPAN-1 [32]": {"test_system": "CAPAN-1", "test": "Cell cycle arrest in human Capan1 cells assessed as accumulation at G0/G1 phase at 1 uM after 72 hrs by propidium iodide-staining based flow cytometry (reference value: 63.33%)", "format": "functional"}, "Mus musculus [33]": {"test_system": "Mus musculus", "test": "Toxicity in nude BALB/cA mouse xenografted with human MDA-MB-436 cells harboring BRCA1 mutant assessed as mortality at 50 mg/kg, po administered once daily for 21 consecutive days measured twice per week", "format": "organism-based", "details": "in vivo"}, "MDA-MB-436 [34]": {"test_system": "MDA-MB-436", "test": "Induction of apoptosis in human MDA-MB-436 cells assessed as late apoptotic cells at 1 uM after 96 hrs in presence of pancaspase inhibitor Z-VAD-FMK by Annexin V-FITC/propidium iodide double-staining based flow cytometery (reference value: 5.11%)", "format": "functional"}, "[35]": {"test": "Oral bioavailability in Sprague-Dawley rat at 10 mg/kg by LC-MS/MS analysis", "format": "ADME, organism-based", "details": "in vivo"}, "[36]": {"test": "Cmax in Sprague-Dawley rat at 10 mg/kg, po by LC-MS/MS analysis", "format": "ADME, organism-based", "parameters": "dose 10 mg/kg, route oral", "details": "in vivo"}, "Mus musculus [37]": {"test_system": "Mus musculus", "test": "Toxicity in nude BALB/cA mouse xenografted with human Capan1 cells harboring BRCA2 mutant assessed as mortality at 40 mg/kg, po administered once daily for 21 consecutive days measured twice per week", "format": "organism-based", "details": "in vivo"}, "MDA-MB-436 [38]": {"test_system": "MDA-MB-436", "test": "Induction of apoptosis in human MDA-MB-436 cells assessed as early apoptotic cells at 0.1 uM after 96 hrs by Annexin V-FITC/propidium iodide double-staining based flow cytometery (reference value: 1.90%)", "format": "functional"}},
  "note": "The source made the active and inactive calls. The calls are words filed in the database; no cut-off is given here.",
  "data": [
    {"smiles": "N#Cc1cccnc1N1CCN(C(=O)c2cc(Cc3n[nH]c(=O)c4ccccc34)cc(F)c2F)CC1", "values": [
      {"measurement": "Activity", "setting": "CAPAN-1 [1]", "result": 17.33, "unit": "%"},
      {"measurement": "Activity", "setting": "CAPAN-1 [2]", "result": 49.95, "unit": "%"},
      {"measurement": "inhibition", "setting": "[3]", "result": "Dose-dependent effect"},
      {"measurement": "half-life", "setting": "[4]", "result": 5.3, "unit": "h"},
      {"measurement": "inhibition", "setting": "[5]", "result": "Dose-dependent effect"},
      {"measurement": "Activity", "setting": "CAPAN-1 [6]", "result": "Non-Toxic"},
      {"measurement": "inhibition in vivo at 50 mg/kg", "setting": "MDA-MB-436 [7]", "result": 94.2, "unit": "%"},
      {"measurement": "Activity", "setting": "CAPAN-1 [8]", "result": 26.75, "unit": "%"},
      {"measurement": "IC50", "setting": "MDA-MB-436 [9]", "result": 0.2, "unit": "nM"},
      {"measurement": "Activity", "setting": "CAPAN-1 [10]", "result": "Non-Toxic"},
      {"measurement": "Drug metabolism", "setting": "[11]", "result": "Metabolite_Detected"},
      {"measurement": "AUC", "setting": "[12]", "result": 1380, "unit": "ng·h/mL"},
      {"measurement": "Activity", "setting": "Mus musculus [13]", "result": "Non-Toxic"},
      {"measurement": "Activity", "setting": "MDA-MB-436 [14]", "result": "Active"},
      {"measurement": "Activity", "setting": "MDA-MB-436 [15]", "result": 17.99, "unit": "%"},
      {"measurement": "inhibition", "setting": "[16]", "result": "Active"},
      {"measurement": "half-life", "setting": "[17]", "result": 3, "unit": "h"},
      {"measurement": "solubility at 24 h", "setting": "[18]", "result": 1.1, "unit": "µg/mL"},
      {"measurement": "Drug metabolism", "setting": "[19]", "result": "Metabolite_Detected"},
      {"measurement": "inhibition", "setting": "[20]", "result": "Dose-dependent effect"},
      {"measurement": "Cmax", "setting": "[21]", "result": 3260, "unit": "ng/mL"},
      {"measurement": "Activity", "setting": "CAPAN-1 [22]", "result": "Dose-dependent effect"},
      {"measurement": "Papp B→A at 2 h", "setting": "[23]", "result": 34.1, "unit": "×10⁻⁶ cm/s"},
      {"measurement": "IC50", "setting": "CAPAN-1 [24]", "result": 7.1, "unit": "nM"},
      {"measurement": "Retention_time", "setting": "[25]", "result": 7.8, "unit": "min"},
      {"measurement": "remaining at 1 h, 1 µM", "setting": "[26]", "result": 105, "unit": "%"},
      {"measurement": "Activity", "setting": "CAPAN-1 [27]", "result": 5.15, "unit": "%"},
      {"measurement": "fraction unbound at 4 h, up to 50 µM", "setting": "[28]", "result": 0.012},
      {"measurement": "inhibition", "setting": "[29]", "result": "Dose-dependent effect"},
      {"measurement": "Activity", "setting": "CAPAN-1 [30]", "result": 55.92, "unit": "%"},
      {"measurement": "recovery at 2 h", "setting": "[31]", "result": 91.5, "unit": "%"},
      {"measurement": "Activity", "setting": "CAPAN-1 [32]", "result": 22.38, "unit": "%"},
      {"measurement": "Activity", "setting": "Mus musculus [33]", "result": "Non-Toxic"},
      {"measurement": "Activity", "setting": "MDA-MB-436 [34]", "result": 18.6, "unit": "%"},
      {"measurement": "bioavailability", "setting": "[35]", "result": 4.7, "unit": "%"},
      {"measurement": "Cmax", "setting": "[36]", "result": 74.4, "unit": "ng/mL"},
      {"measurement": "Activity", "setting": "Mus musculus [37]", "result": "Non-Toxic"},
      {"measurement": "Activity", "setting": "MDA-MB-436 [38]", "result": 5.36, "unit": "%"}
    ]}
  ]
}
